pIC50: −log10 of the molar value. Values after ≈ are worked out from the molar mass of the structure shown.
Experiments:
[1] = test system: Mycobacterium tuberculosis; assay: Inhibition of Mycobacterium tuberculosis Lipy incubated for 30 mins by UV spectrophotometric analysis
[2] = test system: Mycobacterium tuberculosis; assay: Inhibition of Mycobacterium tuberculosis Lipy assessed as pomegranate oil TAG lipolysis at 4 times molar excess of inhibitor concentration related to 1 mole of enzyme incubated for 30 mins by microtitre plate assay
[3] = (§1) Antibacterial activity against Mycobacterium Mycobacterium abscessus CIP 104536T infected in mouse RAW264.7 cells assessed as […] incubated for 4 to 5 days; format: functional; settings: Mycobacteroides abscessus, time 4-5 day
[4] = test system: Mycobacterium tuberculosis; assay: Inhibition of Mycobacterium tuberculosis Lipy assessed as pomegranate oil TAG lipolysis at 20 times molar excess of inhibitor concentration related to 1 mole of enzyme incubated for 30 mins by microtitre plate assay
[5] = test system: Mycobacteroides abscessus; assay: Antibacterial activity against Mycobacterium abscessus CIP 104536T smooth morphotype incubated for 1 to 14 days; format: functional; settings: time 1-14 day
[6] = test system: Mycobacteroides abscessus; assay: Antibacterial activity against Mycobacterium abscessus CIP 104536T rough morphotype incubated for 1 to 14 days; format: functional; settings: time 1-14 day
RAW264.7 [7] = assay: Cytotoxicity against mouse RAW264.7 cells; format: functional
Mycobacterium = assay: Antibacterial activity against Mycobacterium by REMA assay; format: functional
RAW264.7 [8] = assay: as §1; format: functional; settings: Mycobacteroides abscessus, time 4-5 day
[9] = test system: Mycobacterium tuberculosis; assay: Antibacterial activity against Mycobacterium tuberculosis; format: functional
[10] = Inhibition of Mycobacterium tuberculosis Cut6
[11] = Antibacterial activity against Mycobacterium Mycobacterium abscessus CIP 104536T infected in mouse RAW264.7 cells assessed as bacterial viability at 30 uM incubated for 4 to 5 days relative to control; format: functional, Mycobacteroides abscessus; settings: time 4-5 day
[12] = test system: Mycobacterium tuberculosis; assay: Antibacterial activity against Mycobacterium tuberculosis incubated for 2 to 3 weeks; format: functional; settings: time 2-3 weeks

Compound	I50 [1] [molar excess]	inhibition [2] [%]	inhibition [4] [%]	MIC50 [5] [µM]	MIC50 [6] [µM]	CC50 (RAW264.7 [7]) [µM]	further results
COc1nn(-c2ccc(Oc3ccccc3)cc2)c(=O)o1	0.93	60.8	79.4	88.2 (≈ 25.1 µg/mL)	> 200		MIC50 [3]: 75.2 µM (≈ 21.4 µg/mL)
CC(C)COc1nn(-c2cccc(Oc3ccccc3)c2)c(=O)o1	3.9	37.4	49.4				
NNC(=O)c1ccncc1 [ISONIAZID]						> 150	
CCOc1nn(-c2cccc(Oc3ccccc3)c2)c(=O)o1	6.5	21.7	53.8				
CCCCCCCCCCCC[C@@H]1CC[P@@](=O)(OC)OC(C)=C1C(=O)OC				> 100	> 100	> 100	MIC50 [3]: 7.9 µM (≈ 3.18 µg/mL)
CCCCCCCCCCCCCCCCOP1(=O)OCCC(C(=O)OC)=C(C)O1 (stereo unspecified)				12.7 (≈ 5.67 µg/mL)	0.37 (≈ 0.165 µg/mL)	> 100	MIC (Mycobacterium): 2 µg/mL (≈ 4.48 µM); MIC50 (RAW264.7 [8]): NE
CCCCCCCCCCCCCCCCO[P@]1(=O)OC[C@H]2COC(=O)C2=C(C)O1						> 100	
O=c1oc(OCCOCc2ccccc2)nn1-c1cccc(Oc2ccccc2)c1	0.72	88	90.2				
CCCCC[C@H]1CC[P@@](=O)(OC)OC(C)=C1C(=O)OC						> 100	
CCCCOc1nn(-c2cccc(Oc3ccccc3)c2)c(=O)o1	> 40	15.6	63.7				
CCCCCCCCCCCCCCCCO[P@]1(=O)OC[C@@H]2COC(=O)C2=C(C)O1						> 100	
C=CCCCCCCC[C@H]1C(=O)O[C@@H]1CCCCCNC(=O)c1ccc(N(C)C)cc1							INH [9]: 1.6 µM
CCCCCCCCCCC[C@@H](C[C@@H]1OC(=O)[C@H]1CCCCCC)OC(=O)[C@@H]1CCCN1C(C)=O							pIC50 [10]: 6.70
C[C@@H](O)[C@H]1C(=O)N2C(C(=O)O)=C(SCCNC=N)C[C@H]12 [IMIPENEM ANHYDROUS]				11.3 (≈ 3.38 µg/mL)	29.9 (≈ 8.95 µg/mL)		MIC50 [3]: 28.3 µM (≈ 8.47 µg/mL)
CO[C@H]1/C=C/O[C@@]2(C)Oc3c(C)c(O)c4c(O)c(c(/C=N/N5CCN(C)CC5)c(O)c4c3C2=O)NC(=O)/C(C)=C\C=C\[C@H](C)[C@H](O)[C@@H](C)[C@@H](O)[C@@H](C)[C@H](OC(C)=O)[C@@H]1C [RIFAMPIN]						24	
CCCCCCCCCCCC[C@H]1CC[P@@](=O)(OC)OC(C)=C1C(=O)OC				> 100	> 100	> 20	MIC50 [3]: 2 µM (≈ 0.805 µg/mL)
CCCCCCCCCCC[C@@H](C[C@@H]1OC(=O)[C@H]1CCCCCC)OC(=O)[C@H]1CCCN1C=O							pIC50 [10]: 6.70
COc1nn(-c2ccccc2)c(=O)o1	10.9	34.4	81.8	> 200	> 200		MIC50 [3]: 36.5 µM (≈ 7.01 µg/mL)
CC(C)COc1nn(-c2ccc(Oc3ccccc3)cc2)c(=O)o1	> 40	33.8	41.6	33 (≈ 10.8 µg/mL)	53.2 (≈ 17.4 µg/mL)	> 100	Activity [11]: 59%; MIC50 [3]: < 30 µM
CCCCCCCCOc1nn(-c2cccc(Oc3ccccc3)c2)c(=O)o1	0.71	83.2	86.6				

Compound	I50 [1] [molar excess]	inhibition [2] [%]	inhibition [4] [%]	MIC50 [5] [µM]	MIC50 [6] [µM]	CC50 (RAW264.7 [7]) [µM]	further results
CCCCCCCCCCC[C@@H](C[C@@H]1OC(=O)[C@H]1CCCCCC)OC(=O)[C@H](CC(C)C)NC=O [ORLISTAT]	7.1	26.8	87.6				pIC50 [10]: 5.42
CCCCCCCCCC[C@@H]1CC[P@@](=O)(OC)OC(C)=C1C(=O)OC				> 100	> 100	> 100	MIC50 [3]: 29.3 µM (≈ 11 µg/mL)
CCCCCCCCCCC[C@@H](C[C@@H]1OC(=O)[C@H]1CCCCCC)OC(=O)[C@@H]1CCCN1C=O							pIC50 [10]: 6.70
CCCCCCCCCCCCOc1nn(-c2cccc(Oc3ccccc3)c2)c(=O)o1	0.77	88.7	90.4				
CCCCCCCCCCOc1nn(-c2cccc(Oc3ccccc3)c2)c(=O)o1	0.67	91.5	94.2				
O=c1oc(OCCOCc2ccccc2)nn1-c1ccc(Oc2ccccc2)cc1	0.59	97	98.4			> 100	
CCCCCCCCCCC1=C(C(=O)OC)CCOP(=O)(OC)O1 (stereo unspecified)				85 (≈ 30.8 µg/mL)	13.9 (≈ 5.04 µg/mL)		MIC50 (RAW264.7 [8]): NE
CCCCCC(CC)Oc1nn(-c2cccc(Oc3ccccc3)c2)c(=O)o1 (stereo unspecified)	0.73	89.6	94.8				
CCCCCCCCCCCCCCCCC1=C(C(=O)OC)CCOP(=O)(OC)O1 (stereo unspecified)				60 (≈ 26.8 µg/mL)	6.9 (≈ 3.08 µg/mL)		MIC50 (RAW264.7 [8]): NE
COc1nn(-c2cccc(Oc3ccccc3)c2)c(=O)o1	2.4	63.6	85.9				MIC [12]: 50 µM (≈ 14.2 µg/mL)
CCCCCCCCCCC[C@@H](C[C@@H]1OC(=O)[C@H]1CCCCCC)OC(=O)[C@@H]1CSCN1C(C)=O							pIC50 [10]: 6.70
CC(C)COc1nn(-c2ccccc2)c(=O)o1	9.2	31.6	47.9			> 100	
CCCCCCCCCC[C@H]1CC[P@@](=O)(OC)OC(C)=C1C(=O)OC				> 100	> 100	> 100	MIC50 [3]: 65.3 µM (≈ 24.5 µg/mL)
COCCOc1nn(-c2cccc(Oc3ccccc3)c2)c(=O)o1	0.69	92.4	93.7				
CCCCCCCCCCC[C@@H](C[C@@H]1OC(=O)[C@H]1CCCCCC)OC(=O)[C@H]1CCCN1C(C)=O							pIC50 [10]: 6.70
CCCCCCOc1nn(-c2ccccc2)c(=O)o1	> 40	35	38.8			> 100	
CCCCCCOc1nn(-c2ccc(Oc3ccccc3)cc2)c(=O)o1	2.9	38.7	77.2			> 100	
NCC[C@H](O)C(=O)N[C@@H]1C[C@H](N)[C@@H](O[C@H]2O[C@H](CN)[C@@H](O)[C@H](O)[C@H]2O)[C@H](O)[C@H]1O[C@H]1O[C@H](CO)[C@@H](O)[C@H](N)[C@H]1O [AMIKACIN]				3.9 (≈ 2.28 µg/mL)	7.4 (≈ 4.33 µg/mL)		
O=c1oc(OCCOCc2ccccc2)nn1-c1ccccc1	0.61	89	92.2			> 100	
CCCCCCOc1nn(-c2cccc(Oc3ccccc3)c2)c(=O)o1	3.3	39.9	76.5				

Source: ChEMBL document CHEMBL5113371, “Lipolytic enzymes inhibitors: A new way for antibacterial drugs discovery” (Eur J Med Chem, 2021)
